Measured values: patent publication US20240408114A1, “METHODS FOR PREVENTING AND TREATING ACUTE KIDNEY INJURY” (The Johns Hopkins University, priority 2021, published 2024)

Key:
kidney T cells = assay: In vitro kidney T cell proliferation (CFSE) under hypoxia/reoxygenation; assay type: cell-based, mouse; details: 1 μM JHU083, hypoxia followed by reoxygenation
Experimental: Glutamine blocking effect on the kidney T cell proliferation was assessed with carboxyfluoroscein succinimidyl ester (CFSE) analysis. FACS sorted kidney T cells (CD45^+, TCR αβ^+) were cultured with media containing 1 μM JHU083 or vehicle and underwent hypoxia followed by reoxygenation.
Kidney T cells were isolated using FACS. Briefly, single-cell suspension of KMNCs was preincubated with anti-CD16/CD32 Fc block (S17011E, BioLegend) stained in Cell Staining Buffer (BioLegend) with fluorochrome-labeled antibodies: APC-Cy7 anti-CD45 (30-F11) and BV421 anti-TCRβ ([…]) from BioLegend. Live Dead Aqua (Thermo Fisher Scientific) was stained for viability assay. […] TCRβ^+ cells were sorted with FACSAria II Cell Sorter (BD Bioscience). Splenic T cells were isolated from single cells suspension of spleens using a T Cell Isolation Kit II (Miltenyi Biotec, North Rhine-Westphalia, Germany) according to the manufacturer's guideline.
48-well flat-bottom plates were coated with 5-μg/mL anti-CD3 in PBS and incubated at 4° C. overnight. Anti-CD3 coated plates were washed with PBS, and isolated cells were cultured in RPMI 1640 GlutaMAX (Thermo Fisher Scientific) supplemented with 10% FBS (Thermo Fisher Scientific), […] HEPES buffer (Thermo Fisher Scientific), 100-μM non-essential amino acid solution (Sigma-Aldrich), and 55-μM 2-mercaptoethanol (Sigma-Aldrich)±JHU083. […]

[1] = 1.83 mg/kg every other day i.p.; even with a longer duration of treatment; cited from earlier work

## CCOC(=O)[C@H](CCC(=O)C=[N+]=[N-])NC(=O)[C@@H](N)CC(C)C [JHU083]
Kidney T cells
  cell numbers on day 3: significantly lower
Kidney T cells; P<0.001
  proportion of undivided cells (CFSE): significantly higher proportion of undivided cells
[1]
  tolerability of dosage regimen: tolerable without significant toxicity
